Measured values as given in patent publication US11021475B2, “Amide-substituted heterocyclic compounds useful as modulators of IL-12, IL-23 and/or IFN alpha responses” (Bristol-Myers Squibb Company, priority 2012, dated 2021).

Tests used:
[1] = test system: IL-23 stimulated Kit225 T cells (STAT-dependent luciferase reporter); test: Kit225 T cell assay, IL-23-stimulated STAT-dependent luciferase reporter; type: cell-based, human; conditions: 20 ng/mL human recombinant IL-23, 5-6 hours; read-out: IL-23 Kit225 Reporter (IC50)
Protocol: (§1) Kit225 T cells with a stably-integrated STAT-dependent luciferase reporter were plated in RPMI (Gibco) containing 10% heat-inactivated FBS (Gibco) and 100 U/mL PenStrep (Gibco). The cells were then stimulated with either 20 ng/mL human recombinant IL-23 or 200 U/mL human recombinant IFNα (PBL InterferonSource) for 5-6 hours. Luciferase expression was measured using the STEADY-GLO® Luciferase Assay System (Promega) according to the manufacturer's instructions. Inhibition data were calculated by comparison to no inhibitor control wells for 0% inhibition and non-stimulated control wells for 100% inhibition.

[2] = test system: IFNα stimulated Kit225 T cells (STAT-dependent luciferase reporter); test: Kit225 T cell assay, IFNα-stimulated STAT-dependent luciferase reporter; type: cell-based, human; conditions: 200 U/mL human recombinant IFNα, 5-6 hours; read-out: IFNα Kit225 Reporter (IC50)
Protocol: as §1

Structure (SMILES)	IC50 [1] [nM]	IC50 [2] [nM]
CNC(=O)c1nnc(Nc2cc(C)c(C#N)cn2)cc1Nc1ccccc1S(C)(=O)=O [Example 26]	60	50
CS(=O)(=O)c1ccccc1Nc1cc(Nc2ccccn2)nnc1C(N)=O [Example 27]	10	20
CNC(=O)c1nnc(NC(=O)C2CC2F)cc1Nc1ccccc1S(C)(=O)=O (stereo not shown) [Example 28]	420	610
CNC(=O)c1nnc(Nc2ccc(N3CCOCC3)cn2)cc1Nc1ccccc1S(C)(=O)=O [Example 29]	140	80
CNC(=O)c1nnc(Nc2cccc(C)n2)cc1Nc1ccccc1S(C)(=O)=O [Example 30]	20	10
CNC(=O)c1nnc(Nc2ccccn2)cc1Nc1ccccc1S(C)(=O)=O [Example 31]	80	90
CNC(=O)c1nnc(Nc2ccc(C(=O)OC)cn2)cc1Nc1ccccc1S(C)(=O)=O [Example 32]	70	50
CNC(=O)c1nnc(Nc2cc(C(C)=O)ccn2)cc1Nc1ccccc1S(C)(=O)=O [Example 33]	660	400
CNC(=O)c1nnc(Nc2cc(CO)ccn2)cc1Nc1ccccc1S(C)(=O)=O [Example 34]	190	170
CNC(=O)c1nnc(Nc2cc(C(F)(F)F)ccn2)cc1Nc1ccccc1S(C)(=O)=O [Example 35]	210	40
CCc1ccnc(Nc2cc(Nc3ccccc3S(C)(=O)=O)c(C(=O)NC)nn2)c1 [Example 36]	110	30
CCOc1ccnc(Nc2cc(Nc3ccccc3S(C)(=O)=O)c(C(=O)NC)nn2)c1 [Example 37]	540	80
CNC(=O)c1nnc(Nc2cc(OC)ccn2)cc1Nc1ccccc1S(C)(=O)=O [Example 38]	170	100
CNC(=O)c1nnc(Nc2ccnc(C)n2)cc1Nc1ccccc1S(C)(=O)=O [Example 39]	340	130
CNC(=O)c1nnc(Nc2cc(COC)nc(C)n2)cc1Nc1ccccc1S(C)(=O)=O [Example 40]	80	120
CNC(=O)c1nnc(Nc2cc(C)nc(COC)n2)cc1Nc1ccccc1S(C)(=O)=O [Example 41]	160	190
CNC(=O)c1nnc(Nc2cc(OC)ncn2)cc1Nc1ccccc1S(C)(=O)=O [Example 42]	150	260
CNC(=O)c1nnc(Nc2cc(OC)nc(C)n2)cc1Nc1ccccc1S(C)(=O)=O [Example 43]	460	70
CNC(=O)c1nnc(Nc2cc(OC(C)C)nc(C)n2)cc1Nc1ccccc1S(C)(=O)=O [Example 44]	250	100
CNC(=O)c1nnc(Nc2cc(OC(C)C)ncn2)cc1Nc1ccccc1S(C)(=O)=O [Example 45]	420	310
CCc1cc(Nc2cc(Nc3ccccc3S(C)(=O)=O)c(C(=O)NC)nn2)ncn1 [Example 46]	200	60
CCc1cc(Nc2cc(Nc3ccccc3S(C)(=O)=O)c(C(=O)NC)nn2)nc(C)n1 [Example 47]	50	20

Structure (SMILES)	IC50 [1] [nM]	IC50 [2] [nM]
CNC(=O)c1nnc(Nc2cc(C(C)O)ccn2)cc1Nc1ccccc1S(C)(=O)=O (stereo not shown) [Example 48]	330	110
CNC(=O)c1nnc(Nc2ccc(CO)cn2)cc1Nc1ccccc1S(C)(=O)=O [Example 49]	560	220
CNC(=O)c1nnc(Nc2cc(C(C)(C)O)ccn2)cc1Nc1ccccc1S(C)(=O)=O [Example 50]	310	490
CNC(=O)c1nnc(NC(=O)C2CC2)cc1Nc1cccc(-c2ncn(C)n2)c1OC [Example 52]	10	9.21
CNC(=O)c1nnc(NC(=O)C2CC2)cc1Nc1cccc(-c2ccn(C)n2)c1OC [Example 54]	40	20
CNC(=O)c1nnc(Nc2ccc(F)cn2)cc1Nc1cccc(-c2ccn(C)n2)c1OC [Example 55]	20	20
CNC(=O)c1nnc(Nc2cc(C)c(F)cn2)cc1Nc1cccc(-c2ncn(C)n2)c1OC [Example 56]	7.01	5.45
CNC(=O)c1nnc(Nc2cc(C)nc(C)n2)cc1Nc1cccc(-c2cnn(C)c2)c1OC [Example 57]	6.01	6.48
CNC(=O)c1nnc(Nc2ccccn2)cc1Nc1cccc(-c2ccn(C)n2)c1OC [Example 58]	20	8.59
CNC(=O)c1nnc(Nc2cc(C)c(F)cn2)cc1Nc1cccc(-c2cnn(C)c2)c1OC [Example 59]	20	20
CNC(=O)c1nnc(Nc2cc(C)n(C)n2)cc1Nc1cccc(-c2ncn(C)n2)c1OC [Example 60]	10	3.38
CNC(=O)c1nnc(Nc2cc(OC(C)C)nc(C)n2)cc1Nc1cccc(-c2ncn(C)n2)c1OC [Example 62]	30	20
CNC(=O)c1nnc(NC(=O)C2CC2)cc1Nc1cccc(-c2cnn(C)c2)c1OC [Example 63]	40	60
CNC(=O)c1nnc(NC(=O)C2CC2)cc1Nc1cccc(-n2cccn2)c1OC [Example 64]	250	60
CNC(=O)c1nnc(Nc2ccccn2)cc1Nc1cccc(-n2cccn2)c1OC [Example 65]	60	20
CNC(=O)c1nnc(NC(=O)C2CC2)cc1Nc1cccc(-c2ncn(C)n2)c1OC [Example 67]	100	70
CCc1cc(Nc2cc(Nc3cccc(-c4ncn(C)n4)c3OC)c(C(=O)NC)nn2)ncn1 [Example 68]	6.56	3.45
CNC(=O)c1nnc(Nc2ccc(F)cn2)cc1Nc1cccc(-c2ncccn2)c1OC [Example 71]	10	5.99
CNC(=O)c1nnc(Nc2ccc(F)cn2)cc1Nc1cccc(-c2cnccn2)c1OC [Example 74]	20	5.15
CNC(=O)c1nnc(Nc2ccc(F)cn2)cc1Nc1cccc(-c2ccccn2)c1OC [Example 77]	70	20
CNC(=O)c1nnc(Nc2ccc(F)cn2)cc1Nc1cccc(-c2cccnn2)c1OC [Example 79]	80	30
CNC(=O)c1nnc(Nc2ccc(F)cn2)cc1Nc1cccc(-c2nccc(C)n2)c1OC [Example 83]	50	40

Structure (SMILES)	IC50 [1] [nM]	IC50 [2] [nM]
CNC(=O)c1nnc(Nc2cc(OC)ncn2)cc1Nc1cccc(-c2ncn(C)n2)c1OC [Example 88]	20	9.97
CNC(=O)c1nnc(Nc2ccc(F)cn2)cc1Nc1cccc(-c2ccncn2)c1OC [Example 89]	20	2.18
CNC(=O)c1nnc(Nc2ccccn2)cc1Nc1cccc(-c2ncccn2)c1OC [Example 91]	20	3.62
CNC(=O)c1nnc(Nc2cc(C)n(C)n2)cc1Nc1cccc(-c2ncccn2)c1OC [Example 92]	40	8.63
CNC(=O)c1nnc(Nc2cc(C)n(C)n2)cc1Nc1cccc(-c2ccn(C)n2)c1OC [Example 93]	50	10
CNC(=O)c1nnc(NC(=O)C2CC2)cc1Nc1cccc(-c2nc(C)cs2)c1OC [Example 95]	100	20
CNC(=O)c1nnc(Nc2ccccn2)cc1Nc1cccc(-c2ccncn2)c1OC [Example 96]	40	7.38
CNC(=O)c1nnc(Nc2cc(C)nc(C)n2)cc1Nc1cccc(-c2nc(C)cs2)c1OC [Example 97]	10	20
CNC(=O)c1nnc(Nc2cc(OC(C)C)ncn2)cc1Nc1cccc(-c2ncn(C)n2)c1OC [Example 98]	30	9.16
CNC(=O)c1nnc(Nc2cc(N3CCN(CCO)CC3)nc(C)n2)cc1Nc1cccc(-c2ncn(C)n2)c1OC [Example 99]	60	20
CNC(=O)c1nnc(Nc2cc(C)n(C)n2)cc1Nc1cccc(-c2nc(C)cs2)c1OC [Example 100]	40	50
CNC(=O)c1nnc(NC(=O)C2CC2)cc1Nc1cccc(-c2ncc(C)s2)c1OC [Example 101]	100	60
CNC(=O)c1nnc(Nc2ccnc(C)n2)cc1Nc1cccc(-c2ncn(C)n2)c1OC [Example 103]	20	6.06
CNC(=O)c1nnc(NC(=O)C2CC2)cc1Nc1cccc(-c2nccs2)c1OC [Example 105]	180	140
CNC(=O)c1nnc(Nc2cc(C)c(F)cn2)cc1Nc1cccc(-c2nccs2)c1OC [Example 106]	80	80
CNC(=O)c1nnc(Nc2cc(C)n(C)n2)cc1Nc1cccc(-c2nccs2)c1OC [Example 107]	90	140
CNC(=O)c1nnc(Nc2cc(C)ncn2)cc1Nc1cccc(-c2ncn(C)n2)c1OC [Example 109]	10	7.13
CNC(=O)c1nnc(Nc2cc(CO)ccn2)cc1Nc1cccc(-c2ncn(C)n2)c1OC [Example 110]	80	20
CNC(=O)c1nnc(Nc2ccn(C)n2)cc1Nc1cccc(-c2ncccn2)c1OC [Example 111]	30	10
CNC(=O)c1nnc(Nc2cnc(C)cn2)cc1Nc1cccc(-c2ncccn2)c1OC [Example 113]	30	4.41
CCc1cc(Nc2cc(Nc3cccc(-c4ncn(C)n4)c3OC)c(C(=O)NC)nn2)nc(C)n1 [Example 115]	2.96	1.6
